Laboratory results taken from ChEMBL document CHEMBL5291721, “A preclinical secondary pharmacology resource illuminates target-adverse drug reaction associations of marketed drugs” (Nat Commun, 2023).

What was measured:
Acetylcholinesterase = Acetylcholinesterase (Homo sapiens, UniProt P22303); format: functional
[1] = biological target: T1, Alpha-2A adrenergic receptor (Homo sapiens, UniProt P08913)
T1 sequence (P08913 whole entry): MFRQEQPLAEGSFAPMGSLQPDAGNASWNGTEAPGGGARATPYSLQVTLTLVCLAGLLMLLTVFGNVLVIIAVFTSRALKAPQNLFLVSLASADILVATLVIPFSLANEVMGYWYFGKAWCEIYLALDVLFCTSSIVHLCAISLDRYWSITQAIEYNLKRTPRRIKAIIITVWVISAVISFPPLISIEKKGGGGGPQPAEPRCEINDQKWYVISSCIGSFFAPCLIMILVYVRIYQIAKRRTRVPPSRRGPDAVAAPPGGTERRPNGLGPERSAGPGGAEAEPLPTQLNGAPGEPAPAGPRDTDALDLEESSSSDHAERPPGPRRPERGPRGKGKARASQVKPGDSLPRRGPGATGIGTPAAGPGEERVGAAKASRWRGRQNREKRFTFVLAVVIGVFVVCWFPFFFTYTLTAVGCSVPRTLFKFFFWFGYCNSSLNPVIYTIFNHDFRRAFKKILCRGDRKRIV

[2] = biological target: T2, Muscarinic acetylcholine receptor M2 (Homo sapiens, UniProt P08172)
T2 sequence (P08172 whole entry): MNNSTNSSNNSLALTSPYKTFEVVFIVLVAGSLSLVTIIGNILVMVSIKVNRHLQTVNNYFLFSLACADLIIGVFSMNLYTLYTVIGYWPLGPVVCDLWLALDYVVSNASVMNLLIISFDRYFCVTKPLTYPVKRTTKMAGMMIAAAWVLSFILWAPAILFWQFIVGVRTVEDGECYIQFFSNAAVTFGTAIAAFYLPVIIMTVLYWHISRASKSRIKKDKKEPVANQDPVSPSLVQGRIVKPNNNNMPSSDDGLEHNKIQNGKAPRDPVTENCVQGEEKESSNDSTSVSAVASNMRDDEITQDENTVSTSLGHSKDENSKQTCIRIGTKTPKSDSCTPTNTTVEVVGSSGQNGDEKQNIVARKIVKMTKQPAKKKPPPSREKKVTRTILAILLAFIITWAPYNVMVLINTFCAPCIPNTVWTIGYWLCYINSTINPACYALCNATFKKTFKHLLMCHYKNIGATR

D(1A) dopamine receptor = D(1A) dopamine receptor (Homo sapiens, UniProt P21728)
D(3) dopamine receptor = D(3) dopamine receptor (Homo sapiens, UniProt P35462)
Prothrombin = Prothrombin (Homo sapiens, UniProt P00734); format: functional
Histamine H3 receptor = Histamine H3 receptor (Homo sapiens, UniProt Q9Y5N1)
[3] = biological target: T3, 5-hydroxytryptamine receptor 1A (Homo sapiens, UniProt P08908)
T3 sequence (P08908 whole entry): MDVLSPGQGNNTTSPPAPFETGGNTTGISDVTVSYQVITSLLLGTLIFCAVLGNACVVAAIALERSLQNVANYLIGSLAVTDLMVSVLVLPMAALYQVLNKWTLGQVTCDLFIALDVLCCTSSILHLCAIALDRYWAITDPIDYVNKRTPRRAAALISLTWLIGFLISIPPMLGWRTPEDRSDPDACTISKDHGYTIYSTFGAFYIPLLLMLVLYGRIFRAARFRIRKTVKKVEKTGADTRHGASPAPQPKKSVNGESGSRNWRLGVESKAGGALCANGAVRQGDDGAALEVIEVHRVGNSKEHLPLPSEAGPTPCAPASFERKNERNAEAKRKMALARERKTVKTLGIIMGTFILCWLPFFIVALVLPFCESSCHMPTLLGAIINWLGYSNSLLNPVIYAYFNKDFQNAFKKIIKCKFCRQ

[4] = biological target: T4, Amine oxidase [flavin-containing] A (Homo sapiens, UniProt P21397); format: functional
T4 sequence (P21397 whole entry): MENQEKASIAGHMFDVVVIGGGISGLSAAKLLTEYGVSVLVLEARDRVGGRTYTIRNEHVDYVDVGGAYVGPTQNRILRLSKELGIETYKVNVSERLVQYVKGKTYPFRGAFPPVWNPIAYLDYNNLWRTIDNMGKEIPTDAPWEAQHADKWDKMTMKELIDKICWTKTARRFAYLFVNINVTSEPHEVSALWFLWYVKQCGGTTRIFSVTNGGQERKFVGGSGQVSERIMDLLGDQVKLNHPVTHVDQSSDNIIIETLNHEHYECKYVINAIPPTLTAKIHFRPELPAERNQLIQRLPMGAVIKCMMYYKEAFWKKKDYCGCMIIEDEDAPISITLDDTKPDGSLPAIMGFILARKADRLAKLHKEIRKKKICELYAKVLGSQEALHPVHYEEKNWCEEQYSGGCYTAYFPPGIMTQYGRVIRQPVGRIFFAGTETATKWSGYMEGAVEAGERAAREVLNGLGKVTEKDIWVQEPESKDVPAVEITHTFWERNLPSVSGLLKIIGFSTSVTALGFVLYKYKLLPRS

Mu-type opioid receptor = Mu-type opioid receptor (Homo sapiens, UniProt P35372)
[5] = biological target: Prostaglandin G/H synthase 1 (Homo sapiens, UniProt P23219); format: functional
[6] = biological target: Sodium-dependent noradrenaline transporter (Homo sapiens, UniProt P23975)
Thromboxane A2 receptor [7] = biological target: T5, Thromboxane A2 receptor (Homo sapiens, UniProt P21731); format: functional, cell-based
T5 sequence (P21731 whole entry): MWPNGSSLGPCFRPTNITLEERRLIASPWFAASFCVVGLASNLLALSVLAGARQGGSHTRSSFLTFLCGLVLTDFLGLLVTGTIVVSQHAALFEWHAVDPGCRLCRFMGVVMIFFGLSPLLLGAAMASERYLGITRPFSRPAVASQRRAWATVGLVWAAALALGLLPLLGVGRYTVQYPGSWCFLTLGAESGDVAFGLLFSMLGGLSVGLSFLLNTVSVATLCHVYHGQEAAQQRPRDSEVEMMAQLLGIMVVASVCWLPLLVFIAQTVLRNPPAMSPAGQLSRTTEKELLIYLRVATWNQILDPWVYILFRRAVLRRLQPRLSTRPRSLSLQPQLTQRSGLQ

Thromboxane A2 receptor [8] = biological target: T5, Thromboxane A2 receptor; format: functional, cell-based; remark: listed apart in the source
Also: assay procedure not described here.

Sequence of Sodium-dependent noradrenaline transporter (P23975 whole entry): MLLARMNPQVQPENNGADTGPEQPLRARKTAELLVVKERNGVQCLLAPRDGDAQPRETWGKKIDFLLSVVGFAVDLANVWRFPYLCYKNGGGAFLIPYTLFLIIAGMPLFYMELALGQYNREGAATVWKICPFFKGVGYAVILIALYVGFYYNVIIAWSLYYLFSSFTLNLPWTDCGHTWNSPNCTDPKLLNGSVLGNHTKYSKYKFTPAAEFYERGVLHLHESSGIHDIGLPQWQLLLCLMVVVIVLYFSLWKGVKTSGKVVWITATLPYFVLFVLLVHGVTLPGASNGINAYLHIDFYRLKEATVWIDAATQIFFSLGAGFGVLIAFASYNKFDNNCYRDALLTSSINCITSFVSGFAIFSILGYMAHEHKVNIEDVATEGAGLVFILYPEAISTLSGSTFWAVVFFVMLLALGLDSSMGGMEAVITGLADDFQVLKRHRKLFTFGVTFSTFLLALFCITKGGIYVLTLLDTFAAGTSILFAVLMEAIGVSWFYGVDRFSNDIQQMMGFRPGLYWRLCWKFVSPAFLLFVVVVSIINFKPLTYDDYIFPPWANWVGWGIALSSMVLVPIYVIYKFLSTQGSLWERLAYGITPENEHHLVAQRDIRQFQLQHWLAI
Sequence of D(3) dopamine receptor (P35462 whole entry): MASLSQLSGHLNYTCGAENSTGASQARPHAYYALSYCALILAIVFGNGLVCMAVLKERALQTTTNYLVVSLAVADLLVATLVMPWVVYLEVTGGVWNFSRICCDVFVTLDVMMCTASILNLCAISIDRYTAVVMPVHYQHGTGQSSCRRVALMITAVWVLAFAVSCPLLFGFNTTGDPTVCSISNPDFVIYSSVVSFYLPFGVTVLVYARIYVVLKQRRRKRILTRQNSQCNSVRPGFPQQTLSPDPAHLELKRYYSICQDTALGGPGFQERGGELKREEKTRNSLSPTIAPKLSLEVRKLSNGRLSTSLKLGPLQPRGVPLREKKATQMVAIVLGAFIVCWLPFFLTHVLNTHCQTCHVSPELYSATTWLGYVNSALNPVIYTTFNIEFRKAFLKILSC
Sequence of Histamine H3 receptor (Q9Y5N1 whole entry): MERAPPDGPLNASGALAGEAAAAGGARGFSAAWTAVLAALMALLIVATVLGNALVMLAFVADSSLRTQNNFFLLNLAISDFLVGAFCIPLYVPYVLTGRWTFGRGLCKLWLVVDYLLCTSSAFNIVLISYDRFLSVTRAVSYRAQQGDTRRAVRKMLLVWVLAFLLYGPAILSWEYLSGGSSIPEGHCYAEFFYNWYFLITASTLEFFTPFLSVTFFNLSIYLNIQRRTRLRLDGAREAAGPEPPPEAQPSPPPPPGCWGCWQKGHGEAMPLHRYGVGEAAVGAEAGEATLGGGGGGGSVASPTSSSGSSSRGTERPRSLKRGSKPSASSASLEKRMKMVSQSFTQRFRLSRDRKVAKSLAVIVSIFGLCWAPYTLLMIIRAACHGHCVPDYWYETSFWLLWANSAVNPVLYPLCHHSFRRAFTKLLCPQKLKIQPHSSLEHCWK
Sequence of Mu-type opioid receptor (P35372 whole entry): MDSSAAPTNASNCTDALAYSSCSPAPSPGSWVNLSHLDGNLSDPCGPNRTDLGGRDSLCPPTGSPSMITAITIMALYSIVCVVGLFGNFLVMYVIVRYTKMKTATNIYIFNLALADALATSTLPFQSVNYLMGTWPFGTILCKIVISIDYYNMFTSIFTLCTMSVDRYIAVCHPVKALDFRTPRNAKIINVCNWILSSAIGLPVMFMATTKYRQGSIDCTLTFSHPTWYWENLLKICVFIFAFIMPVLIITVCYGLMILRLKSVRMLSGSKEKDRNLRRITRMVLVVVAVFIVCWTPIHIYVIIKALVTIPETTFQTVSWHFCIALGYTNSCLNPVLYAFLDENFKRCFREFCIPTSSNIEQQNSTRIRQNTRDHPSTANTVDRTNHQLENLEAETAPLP
Sequence of Prostaglandin G/H synthase 1 (P23219 whole entry): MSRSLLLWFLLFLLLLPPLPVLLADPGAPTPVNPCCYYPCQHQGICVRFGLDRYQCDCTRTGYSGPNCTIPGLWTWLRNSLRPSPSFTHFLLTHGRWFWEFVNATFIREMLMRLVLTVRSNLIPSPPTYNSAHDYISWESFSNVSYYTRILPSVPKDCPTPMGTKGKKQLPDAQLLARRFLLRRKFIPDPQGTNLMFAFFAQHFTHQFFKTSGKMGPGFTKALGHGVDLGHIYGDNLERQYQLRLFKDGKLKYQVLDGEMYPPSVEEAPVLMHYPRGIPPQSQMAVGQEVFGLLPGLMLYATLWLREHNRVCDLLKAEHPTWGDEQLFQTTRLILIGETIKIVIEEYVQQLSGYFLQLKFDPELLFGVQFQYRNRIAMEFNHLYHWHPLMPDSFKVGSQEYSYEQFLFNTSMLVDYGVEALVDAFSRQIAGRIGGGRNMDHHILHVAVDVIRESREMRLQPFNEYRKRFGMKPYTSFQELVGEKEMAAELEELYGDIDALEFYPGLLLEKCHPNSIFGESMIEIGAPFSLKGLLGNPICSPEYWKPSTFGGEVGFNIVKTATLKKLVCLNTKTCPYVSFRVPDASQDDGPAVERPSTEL
Sequence of Acetylcholinesterase (P22303 whole entry): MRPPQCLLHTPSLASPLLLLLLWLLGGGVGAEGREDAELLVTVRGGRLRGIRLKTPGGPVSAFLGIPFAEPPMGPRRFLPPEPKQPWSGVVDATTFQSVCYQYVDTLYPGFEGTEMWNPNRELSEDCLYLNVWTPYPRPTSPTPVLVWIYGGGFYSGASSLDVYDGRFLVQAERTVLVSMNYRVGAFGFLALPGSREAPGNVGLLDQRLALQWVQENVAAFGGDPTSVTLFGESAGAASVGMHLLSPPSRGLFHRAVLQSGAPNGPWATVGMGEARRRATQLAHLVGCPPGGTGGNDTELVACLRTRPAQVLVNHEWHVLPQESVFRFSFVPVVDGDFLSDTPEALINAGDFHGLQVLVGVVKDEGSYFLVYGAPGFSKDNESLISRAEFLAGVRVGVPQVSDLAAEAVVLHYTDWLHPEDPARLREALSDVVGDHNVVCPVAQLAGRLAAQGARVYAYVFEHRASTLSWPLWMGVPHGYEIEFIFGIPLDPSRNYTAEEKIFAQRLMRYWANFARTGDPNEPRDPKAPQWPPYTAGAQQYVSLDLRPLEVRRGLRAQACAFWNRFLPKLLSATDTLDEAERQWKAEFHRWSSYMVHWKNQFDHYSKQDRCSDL
Sequence of D(1A) dopamine receptor (P21728 whole entry): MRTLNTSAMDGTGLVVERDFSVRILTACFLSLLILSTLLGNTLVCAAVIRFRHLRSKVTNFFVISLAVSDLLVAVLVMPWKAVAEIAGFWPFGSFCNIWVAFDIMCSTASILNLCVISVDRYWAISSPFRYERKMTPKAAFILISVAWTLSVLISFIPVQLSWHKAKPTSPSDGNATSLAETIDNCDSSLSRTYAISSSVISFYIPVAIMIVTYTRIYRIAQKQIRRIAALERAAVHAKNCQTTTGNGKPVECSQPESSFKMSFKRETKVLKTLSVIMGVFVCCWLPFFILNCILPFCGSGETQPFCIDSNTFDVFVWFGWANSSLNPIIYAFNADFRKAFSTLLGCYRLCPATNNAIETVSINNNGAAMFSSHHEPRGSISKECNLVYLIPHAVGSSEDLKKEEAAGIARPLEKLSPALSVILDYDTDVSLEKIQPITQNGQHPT

Row | SMILES | AC50 (Acetylcholinesterase) | AC50 [1] | AC50 [2] | AC50 (D(1A) dopamine receptor) | AC50 (D(3) dopamine receptor) | AC50 (Prothrombin) | AC50 (Histamine H3 receptor) | AC50 [3] | AC50 [4] | AC50 (Mu-type opioid receptor) | AC50 [5] | AC50 [6] | AC50 (Thromboxane A2 receptor [7]) | AC50 (Thromboxane A2 receptor [8])
1 | CCC(=O)O[C@@H]1CC(=O)O[C@H](C)C/C=C/C=C/[C@H](OC(C)=O)[C@H](C)C[C@H](CC=O)[C@H](O[C@@H]2O[C@H](C)[C@@H](O[C@H]3C[C@@](C)(OC(C)=O)[C@@H](OC(=O)CC)[C@H](C)O3)[C@H](N(C)C)[C@H]2O)[C@H]1OC [MIOCAMYCIN] | > 30 µM | > 30 µM | > 30 µM | > 30 µM | > 30 µM | > 30 µM | > 30 µM | > 30 µM | > 30 µM | > 30 µM | > 30 µM | > 30 µM | > 30 µM | > 30 µM
2 | O=C(CCCN1CC=C(n2c(=O)[nH]c3ccccc32)CC1)c1ccc(F)cc1 [DROPERIDOL] | > 30 µM | > 30 µM | > 30 µM | > 30 µM | > 30 µM | > 30 µM | > 30 µM | > 30 µM | > 30 µM | > 30 µM | > 30 µM | > 30 µM | > 30 µM | > 30 µM
3 | CO[C@@]1(NC(=O)CSCC#N)C(=O)N2C(C(=O)O)=C(CSc3nnnn3C)CS[C@@H]21 [CEFMETAZOLE] | > 30 µM | > 30 µM | > 30 µM | > 30 µM | > 30 µM | > 30 µM | > 30 µM | > 30 µM | > 30 µM | > 30 µM | > 30 µM | > 30 µM | > 30 µM | > 30 µM
4 | CNC(=O)C[C@@H](N)C(=O)N[C@@H](C(=O)N[C@@H]1C(=O)N2[C@@H]1SC(C)(C)[C@@H]2C(=O)O)c1ccc(O)cc1 [ASPOXICILLIN] | > 30 µM | > 30 µM | > 30 µM | > 30 µM | > 30 µM | > 30 µM | > 30 µM | > 30 µM | > 30 µM | > 30 µM | > 30 µM | > 30 µM | > 30 µM | > 30 µM
5 | CC(=O)O[C@H]1C[C@H](O[C@H]2[C@@H](O)C[C@H](O[C@H]3[C@@H](O)C[C@H](O[C@H]4CC[C@@]5(C)[C@H](CC[C@@H]6[C@@H]5C[C@@H](O)[C@]5(C)[C@@H](C7=CC(=O)OC7)CC[C@]65O)C4)O[C@@H]3C)O[C@@H]2C)O[C@H](C)[C@H]1O[C@@H]1O[C@H](CO)[C@@H](O)[C@H](O)[C@H]1O [LANATOSIDE C] | > 30 µM | > 30 µM | > 30 µM | > 30 µM | > 30 µM | > 30 µM | > 30 µM | > 30 µM | > 30 µM | > 30 µM | > 30 µM | > 30 µM | > 30 µM | > 30 µM
6 | Nc1ncnc(Nc2ccc(Cl)cc2)n1 [CHLORAZANIL] | > 30 µM | > 30 µM | > 30 µM | > 30 µM | > 30 µM | > 30 µM | > 30 µM | > 30 µM | > 30 µM | > 30 µM | > 30 µM | 5.4 µM | > 30 µM | > 30 µM
7 | C[C@@H]1C[C@H]2[C@@H]3CCC4=CC(=O)C=C[C@]4(C)C3=CC[C@]2(C)[C@H]1C(=O)CN1CCN(c2cc(N3CCCC3)nc(N3CCCC3)n2)CC1 [TIRILAZAD] | > 30 µM | 17.3 µM | 0.432 µM | 7.07 µM | 9.69 µM | > 30 µM | > 30 µM | > 30 µM | > 30 µM | > 30 µM | 3.05 µM | > 30 µM | > 30 µM | > 30 µM
8 | CCSc1ccc2c(c1)N(CCCN1CCN(C)CC1)c1ccccc1S2 [THIETHYLPERAZINE] | > 30 µM | 0.211 µM | 2.24 µM | 0.0079 µM | 0.0031 µM | > 30 µM | 13 µM | 0.449 µM | > 30 µM | 2.69 µM | 26.5 µM | 1.65 µM | > 30 µM | 3.98 µM
9 | COc1cc([C@@H]2c3cc4c(cc3[C@@H](O[C@@H]3O[C@@H]5CO[C@@H](c6cccs6)O[C@H]5[C@H](O)[C@H]3O)[C@H]3COC(=O)[C@H]23)OCO4)cc(OC)c1O [TENIPOSIDE] | > 30 µM | > 30 µM | > 30 µM | > 30 µM | > 30 µM | > 30 µM | > 30 µM | > 30 µM | > 30 µM | > 30 µM | > 30 µM | > 30 µM | > 30 µM | > 30 µM
10 | CCN(CC)CCOC(=O)C(Cc1cccc2ccccc12)CC1CCCO1 (centres undefined) [NAFRONYL] | > 30 µM | > 30 µM | 0.199 µM | 23.5 µM | 10.1 µM | > 30 µM | > 30 µM | > 30 µM | > 30 µM | 7.16 µM | > 30 µM | > 30 µM | > 30 µM | > 30 µM
11 | CC(=O)OC(C)OC(=O)C(C)c1ccc(-c2ccccc2)c(F)c1 (centres undefined) | > 30 µM | > 30 µM | > 30 µM | > 30 µM | > 30 µM | > 30 µM | > 30 µM | > 30 µM | > 30 µM | > 30 µM | 0.0212 µM | > 30 µM | > 30 µM | > 30 µM
